Reference: patent US20150050373A1, “HERBAL COMPOSITION FOR THE TREATMENT OF METABOLIC DISORDERS” (PIRAMAL ENTERPRISES LIMITED, priority 2012, published 2015)

Columns and labels:
[1] = biological target: T1, human DGAT-1 enzyme over expressed in Sf9 cell-line (Homo sapiens, UniProt O75907); experiment: hDGAT-1 assay (inhibition of [14C]triglyceride formation by microsomes); type: biochemical
T1 construct: hDGAT-1 ORF expression clone (RZPD0839C09146 in pDEST vector) was obtained from RZPD, Germany; made in house; host or cells: Sf9 insect cells (baculovirus, Bac-to-Bac); microsomal fraction
T1 sequence (O75907 1-488): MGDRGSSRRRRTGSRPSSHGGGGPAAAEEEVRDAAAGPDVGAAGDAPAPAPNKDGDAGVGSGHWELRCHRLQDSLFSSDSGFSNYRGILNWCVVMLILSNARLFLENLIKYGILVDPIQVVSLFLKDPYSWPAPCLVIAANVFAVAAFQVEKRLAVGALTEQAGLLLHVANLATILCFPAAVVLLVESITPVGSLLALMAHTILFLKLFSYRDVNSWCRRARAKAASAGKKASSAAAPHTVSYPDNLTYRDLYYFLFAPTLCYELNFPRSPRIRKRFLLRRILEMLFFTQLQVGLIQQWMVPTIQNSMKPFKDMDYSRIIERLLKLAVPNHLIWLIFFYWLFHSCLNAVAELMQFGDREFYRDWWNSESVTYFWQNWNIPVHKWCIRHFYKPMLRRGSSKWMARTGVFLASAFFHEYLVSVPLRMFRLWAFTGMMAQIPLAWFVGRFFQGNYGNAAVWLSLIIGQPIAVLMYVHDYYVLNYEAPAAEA
Experimental: The DGAT-1 assay was designed using human DGAT-1 enzyme over expressed in Sf9 cell-line as described in the reference, European Journal of Pharmacology, 650, 663-672, (2011), the disclosure of which is incorporated by reference for the teaching of the assay.
hDGAT-1 Enzyme preparation: Enzyme was diluted to a working concentration of 1 mg/mL in hDGAT-1 assay buffer, 2.5 μL of the working enzyme stock was used in hDGAT-1 assay (final concentration 25 μg/mL).
The test samples were prepared as follows. A stock solution of 20 mg/mL was prepared for each extract (Extract of Example 1 to Extract of Example 7) in 100% dimethyl sulfoxide (DMSO). The working stock was prepared in hDGAT-1 assay buffer. […]
Three different concentrations for dose response (i.e. 25 μg/mL, 50 μ/mL and 100 μg/mL) were prepared for Extract of Example 1 by serial dilution of stock solution.
60 μL of substrate mix (as described above) was added to a total assay volume of 100 μL. The reaction was started by adding 2.5 μg hDGAT-1 containing microsomal protein and was incubated at 37° C. for 10 min. The reaction was stopped by adding 300 μL of alkaline ethanol stop solution mix (AESSM). The reaction involves the incorporation of radioactive [^14C] oleoyl-CoA into the third hydroxyl group (OH) of 1,2-dioleoyl-sn-glycerol to form the radioactive triglyceride ([^14C] triglyceride) which was then extracted into the upper heptane phase. The radioactive triglyceride product thus formed was separated into the organic phase by adding 600 μL of n-heptane. 250 μL of the upper heptane was added into 4 mL of scintillation fluid and measured using a liquid scintillation counter (Packard; 1600CA) as disintegration per min (dpm) counts. The percentage inhibition was calculated with respect to the vehicle. […]

[2] = system: high fat diet (HFD) induced obesity model; experiment: High fat diet (HFD)-induced body weight gain study in mice; type: in vivo; settings: Mean ± S.E.M.
Experimental: A HFD induced body weight gain study in mice was conducted to evaluate the efficacy of the Extract of Example 1.
Male C57BL/6J mice (in-house; Central Animal Facility, Piramal Healthcare Limited, Goregaon, Mumbai, Maharashtra, India) were acclimatized with HFD (60% Kcal, D12492, Research Diets, USA) for two weeks.
A suspension of Extract of Example 1 was prepared in polyethyleneglycol 400 (30%) (PEG 400, Fisher Scientific, India) and 0.5% carboxy methylcellulose (70%) (CMC, Sigma, USA).
The Extract of Example 1 was administered at a dose of 500 mg/kg body-weight orally, once daily. Orlistat (Biocon, India) was used as the standard drug and was administered orally at a dose of 15 mg/kg body weight, twice daily. A separate group of ten mice was fed a low fat diet (LED, 10% kcal, D12450B, Research Diet, USA) as a normal control. Vehicle was administered to the HFD and LFD control groups at dose of 10 mL/kg body weight.
The treatments were continued for a period of sixty days. Body weight and feed intake were monitored daily. The % change in body weight (% increase in body weight from day 1) and the cumulative feed intake data was calculated. On day sixtyone, blood samples (˜200 μL/mice) were collected in heparinised (50 IU/mL) micro-centrifuge tubes under isoflurane anesthesia. Plasma was separated by centrifugation at 10000 rpm at 4° C. for estimation of various plasma biochemistry parameters. The biochemistry analysis was performed on BS-400 autoanalyzer (Mindray, China). Subsequently, the mice were sacrificed and following organs/tissues were dissected out and weighed viz., liver, heart, kidneys, epididymal fat and retroperitoneal fat. All the data was analyzed for statistical significance by one-way ANOVA followed by Dunnet's post-hoc test and values of P<0.05 were considered as significant. All analyses were carried out using GraphPad Prism version 4.00 for Windows (GraphPad Software, San Diego, Calif., USA).

[3] = HFD-fed mice after 60 days treatment, Extract 500 mg/kg once daily, Orlistat 15 mg/kg twice daily, oral
[4] = HFD-fed mice, Day 60, Extract 500 mg/kg orally once daily, Orlistat 15 mg/kg orally twice daily

CC1(C)Oc2ncncc2N=C1c1ccc([C@H]2CC[C@@H](CC(=O)O)CC2)cc1 [IN5530, 2-((1s,4s)-4-(4-(7,7-dimethyl-7H-pyrimido [4,5-b][1,4]oxazin-6-yl)phenyl)cyclohexyl)acetic acid]
% inhibition of hDGAT-1 ([1]; Table 1, 20 nM): 46.27%
% inhibition of hDGAT-1 ([1]; Table 1, 0.1 μM): 66.04%
% inhibition of hDGAT-1 ([1]; Table 2, 20 nM): 48.82%
% inhibition of hDGAT-1 ([1]; Table 2, 0.1 μM): 74.26%

CCCCCCCCCCC[C@@H](C[C@@H]1OC(=O)[C@H]1CCCCCC)OC(=O)[C@H](CC(C)C)NC=O [Orlistat]
Body Weight (g) (Day 0) ([2]; HFD-fed male C57BL/6J mice, baseline Day 0): 26.4 ± 0.4 g
Epididymal Fat [2, 3]: 1.07 ± 0.10 g
Retroperitoneal Fat [2, 3]: 0.42 ± 0.05 g
% Change in body weight ([2]; HFD-fed mice, % increase in body weight from day 1, 60 days, Extract 500 mg/kg orally once daily, Orlistat 15 mg/kg orally twice daily): 16.74 ± 2.70%
Body Weight (g) (Day 60) [2, 4]: 30.9 ± 0.9 g
Cumulative Feed intake (g/mice) (Day 60) [2, 4]: 119.7 ± 4.7 g/mice
Total Fat ([2]; Total fat = Epididymal fat + Retroperitoneal fat, HFD-fed mice after 60 days treatment): 1.49 ± 0.15 g
